Assay results published in patent US20240018132A1, “5-HYDROXY-1,4-NAPHTHALENEDIONE FOR USE IN THE TREATMENT OF CANCER” (GODAVARI BIOREFINERIES LIMITED, priority 2020, published 2024).

Tests used:
PC3 [1] = assay: In vitro antiproliferative assay (MTT assay), prostate cancer cell line; format: cell-based; settings: Homo sapiens, PC-3, 48 h, MTT assay, prostate cancer PC3, 48 hrs drug incubation
Description: (§1) MTT assay is a simple and sensitive assay where, metabolic reducing activity of the cells is measured. The increase of this activity in time is taken as a parameter of cell growth. If treatment with a drug impairs this increase, the action is a consequence of growth inhibition, cell killing or both. […] All cell lines were cultured in a 37° C. incubator with a 5% CO2 environment. Compounds were dissolved in DMSO with a concentration of 0.1M (stock solution). Cells were seeded into 96-well plates at suitable plating efficiency.
(§2) Following plating efficiencies were standardized for MTT assay:
(§3) In the MTT procedure, the cells were plated in 96 well plates as per predetermined plating efficiency (Table1). The plates were then incubated for 24 hrs in 5% CO2 atmosphere at 37° C. Appropriate concentrations of the drugs were then added to the plate and further incubation was carried out for 48 hrs (in 5% CO2 atmosphere at 37° C.). The assay plate was then centrifuged twice at 3000 rpm for 3 mins and supernatant was then discarded. 100 ul of MTT solution (0.5 mg/ml) was then added to each well of the plate and it was further incubated for 4 hrs (in 5% CO2 atmosphere at 37° C.) Following 4 hr incubation, the plate was then centrifuged twice, and supernatant was aspirated off very carefully. 200 ul of DMSO was then added to each well to solubilize. MTT crystals and mixed well by shaking the plate. XY graph of log percent viability was then plotted against log drug concentration.

MDAMB231 [2] = assay: In vitro sphere-forming assay (cancer stem cells), Mammosphere media; settings: for viability at 0.0025 µM / viability at 0.025 µM / viability at 0.25 µM / viability at 2.5 µM / viability at 25 µM: Homo sapiens, MDA-MB-231, read-out: % Viability of spheres (MDAMB231); for 3D sphere count of MDAMB231: Mammosphere media, 2000 cells/well, n = 6 ± S.D
PC3 [3] = assay: In vitro sphere-forming assay (cancer stem cells), Prostosphere media; settings: for viability at 0.0025 µM / viability at 0.025 µM / viability at 0.25 µM / viability at 2.5 µM / viability at 25 µM: Homo sapiens, PC-3, read-out: % Viability of spheres (PC3); for 3D sphere count of PC3: Prostosphere media, 2000 cells/well, n = 6 ± S.D
MDAMB231 [4] = assay: In vitro antiproliferative assay (MTT assay), breast cancer cell line; format: cell-based; settings: Homo sapiens, MDA-MB-231, 48 h, MTT assay, breast cancer MDAMB231, 48 hrs drug incubation
Description: as §1, §2, §3

Row | SMILES | IC50 (PC3 [1]) [nM] | viability at 0.0025 µM (MDAMB231 [2]) [%] | viability at 0.025 µM (MDAMB231 [2]) [%] | viability at 0.25 µM (MDAMB231 [2]) [%] | viability at 2.5 µM (MDAMB231 [2]) [%] | viability at 25 µM (MDAMB231 [2]) [%] | 3D sphere count of MDAMB231 (MDAMB231 [2]; drug 0.0025 uM) | 3D sphere count of MDAMB231 (MDAMB231 [2]; drug 0.025 uM) | 3D sphere count of MDAMB231 (MDAMB231 [2]; drug 0.25 uM) | 3D sphere count of MDAMB231 (MDAMB231 [2]; drug 2.5 uM) | 3D sphere count of MDAMB231 (MDAMB231 [2]; drug 25 uM) | viability at 0.0025 µM (PC3 [3]) [%] | viability at 0.025 µM (PC3 [3]) [%] | viability at 0.25 µM (PC3 [3]) [%] | viability at 2.5 µM (PC3 [3]) [%] | viability at 25 µM (PC3 [3]) [%] | 3D sphere count of PC3 (PC3 [3]; drug 0.0025 uM) | 3D sphere count of PC3 (PC3 [3]; drug 0.025 uM) | 3D sphere count of PC3 (PC3 [3]; drug 0.25 uM) | 3D sphere count of PC3 (PC3 [3]; drug 2.5 uM) | other results
1 | O=C1C(Oc2ccc3c(c2)OCO3)=CC(=O)c2c(OCCN3CCOCC3)cccc21 [Formula 46, 5-(2-morpholinoethoxy)-2-(benzo[d][1,3]dioxol-5-yloxy)naphthalene-1,4-dione] | 1350 | 74 | 60 | 49 | 32 | 20 | 67(±5) | 54(±4) | 44(±4) | 29(±3) | 18(±3) | 82 | 67 | 51 | 36 | 22 | 66(±3) | 54(±4) | 41(±3) | 29(±3) | 3D sphere count of PC3 (PC3 [3]; drug 25 uM): 18(±3); IC50 (MDAMB231 [4]): 1370 nM
2 | O=C1C(Oc2ccc3c(c2)OCO3)=CC(=O)c2c(OCCCCN3CCOCC3)cccc21 [Formula 47, 5-(4-morpholinobutoxy)-2-(benzo[d][1,3]dioxol-5-yloxy)naphthalene-1,4-dione] | 582 | 78 | 59 | 43 | 27 | 17 | 71(±2) | 53(±3) | 39(±3) | 25(±5) | 16(±3) | 77 | 57 | 43 | 28 | 18 | 62(±4) | 46(±4) | 35(±3) | 23(±3) | 3D sphere count of PC3 (PC3 [3]; drug 25 uM): 15(±3); IC50 (MDAMB231 [4]): 970 nM
3 | O=C1C(Oc2ccc(F)cc2F)=CC(=O)c2c(OCCN3CCOCC3)cccc21 [Formula 74] | 225 | 73 | 48 | 35 | 27 | 12 | 60(±3) | 39(±3) | 29(±3) | 22(±4) | 10(±2) | 73 | 56 | 41 | 27 | 17 | 64(±6) | 45(±2) | 36(±4) | 24(±4) | 3D sphere count of PC3 (PC3 [3]; drug 25 uM): 15(±3); IC50 (MDAMB231 [4]): 109 nM
4 | O=C1C(Oc2ccc(F)cc2)=CC(=O)c2c(OCCN3CCOCC3)cccc21 [Formula 75, 5-(2-morpholinoethoxy)-2-(4-fluorophenoxy) naphthalene-1,4-dione] | 306 | 80 | 56 | 45 | 32 | 17 | 64(±3) | 45(±3) | 36(±4) | 26(±3) | 14(±3) | 82 | 57 | 47 | 33 | 20 | 66(±4) | 46(±4) | 38(±3) | 27(±3) | 3D sphere count of PC3 (PC3 [3]; drug 25 uM): 16(±2); IC50 (MDAMB231 [4]): 566 nM
5 | O=C1C(Oc2ccc(F)c(F)c2)=CC(=O)c2c(OCCN3CCOCC3)cccc21 [Formula 76] | 324 | 82 | 67 | 56 | 40 | 29 | 74(±3) | 61(±2) | 51(±3) | 36(±3) | 26(±4) | 86 | 72 | 55 | 38 | 28 | 69(±3) | 58(±4) | 44(±4) | 31(±3) | 3D sphere count of PC3 (PC3 [3]; drug 25 uM): 23(±3); IC50 (MDAMB231 [4]): 2480 nM
6 | COc1ccc(OC2=CC(=O)c3c(OCCCN4CCOCC4)cccc3C2=O)cc1 [Formula 77] | 269 | 82 | 70 | 53 | 40 | 30 | 74(±4) | 63(±5) | 48(±3) | 36(±4) | 27(±3) | 80 | 68 | 51 | 36 | 26 | 64(±3) | 55(±3) | 41(±3) | 29(±6) | 3D sphere count of PC3 (PC3 [3]; drug 25 uM): 21(±3); IC50 (MDAMB231 [4]): 2220 nM
7 | O=C1C(Oc2ccc(F)cc2)=CC(=O)c2c(OCCCN3CCOCC3)cccc21 [Formula 78] | 3460 | 87 | 67 | 57 | 46 | 35 | 79(±3) | 65(±5) | 52(±4) | 42(±4) | 32(±3) | 81 | 68 | 53 | 41 | 30 | 65(±4) | 55(±3) | 43(±3) | 33(±3) | 3D sphere count of PC3 (PC3 [3]; drug 25 uM): 24(±4); IC50 (MDAMB231 [4]): 5500 nM
